Experimental data published in patent US20190269666A1, “COMBINATION THERAPY WITH MERESTINIB AND ANTI-PD-L1 OR ANTI-PD-1 INHIBITORS FOR USE IN THE TREATMENT OF CANCER” (Eli Lilly and Company, priority 2016, published 2019).

Assays:
[1] = test system: CT26 cells; assay: CT26 cell proliferation; assay type: cell-based; details: Mus musculus, in vitro
Description: CT26 CRC tumor cells harbor KRAS activating mutation G12D. […] CT26 cells also express high level of phospho-AXL (p-AXL) by western blot analysis and merestinib is shown to decrease p-AXL in vitro by more than 60% at a concentration of 500 nM in the mouse phospho-RTK array, but show very little effect on CT26 cell proliferation (IC50>20 μM).

[2] = test system: EMT6 syngeneic mouse mammary carcinoma tumor model; assay: EMT6 syngeneic mouse mammary carcinoma tumor model; assay type: in vivo
Excerpt: A syngeneic mouse tumor model is used to evaluate potential combination effect of merestinib and anti-PD-L1 antibody in the EMT6 model (Rockwell, S C, Kallman, R F, Fajardo, L F. Characteristics of a serially transplanted mouse mammary tumor and its tissue-culture-adpated derivative. J Nat Cancer Institute. 1972, 49:735-749). Anti-PD-L1 antibody surrogate (178G7, LSN3370181) (Eppihimer et al. Microcirculation 2002:9(2):133) is used in the mouse study.
Female BALB/c mice (18-20 gm) from Envigo (Harlan Laboratories) are used for this study. Food and water are available ad libitum. Animals are acclimated for at least one week prior to any experimental manipulation. The study is performed in accordance with AALAC accredited institutional guidelines.
Merestinib is formulated as a solution in 10% PEG 400 in 90% (20% Captisol in H2O) once weekly. Anti-PD-L1 antibody (LSN3370181) is formulated in PBS (phosphate buffered saline).
EMT6 cells (from internal in vivo pharmacology cell culture group lot EMT6-3184882) are used for implantation. Approximately 5×10^5 cells in HBSS are implanted subcutaneously into the right hind flank of the animal under anesthesia. Prior to commencing drug administration, animals are randomized to treatment groups based on body weight.
There are 4 arms in this study with 15 animals per group: 1) vehicle control; 2) merestinib 12 mg/kg QD×21, PO; 3) LSN3370181 (anti-PD-L1) 0.5 mg/mouse once weekly for 3 weeks via IP; 4) combination merestinib+anti-PD-L1 antibody; combination therapies follow the same dosing schedule as the monotherapies. Treatment is initiated on Day 6 post tumor cell implantation and continued for 21 days (final dose administered on Day 26). Tumor volumes and body weight are measured bi-weekly. Tumor volume is estimated by using the formula: v=l×w^2×0.536 where l=larger of measured diameter and w=smaller of perpendicular diameter. Animals are sacrificed using CO2 and cervical dislocation.
On Day 20 post tumor cell implant, 5 animals from each group are taken down for harvesting of spleens and tumors for mechanism of action (MOA) studies (FACs analysis, gene expression). The remaining animals continue with treatment as described above. At the end of the dosing period (Day 27 post tumor cell implant), animals are observed for tumor growth for 43 days. Animals are removed from study when tumor burden reached or exceeded 2500 mm^3. To assess immune memory, on Day 70 post tumor cell implant, animals that remained on study (complete responders and partial responders) are rechallenged with new implant of EMT6 cells on the contralateral side and observed for tumor growth for 15 days.
Tumor volume is transformed to the log scale to equalize variance across time and treatment groups. The log volume data are analyzed with a two-way repeated measures analysis of variance by time and treatment using the MIXED procedures in SAS software (Version 9.3). The correlation model for the repeated measures is spatial power. Treated groups are compared to the control group at each time point. The MIXED procedure is also used separately for each treatment group to calculate least squares means and standard errors at each time point. Both analyses account for the autocorrelation within each animal and the loss of data that occurs when animals are removed or lost before end of study.
Bayesian ordinal logistic regression analysis is used to obtain the posterior probability of the combination treatment effect for synergy, additivity or antagonism was conducted on Day 69 for this study. Each animal was classified into one of 3 response categories, based on its Day 69 tumor volume and by comparison to the vehicle data: I) Non-responder (NR), II) Partial Responder (PR), III) Complete Responder (CR). CR is defined by tumor volume […] at Day 69. NR is defined as unperturbed exponential growth, similar to vehicle animals. […]

Question: Cc1ccc(C(=O)Nc2ccc(Oc3cc4cnn(C)c4cc3-c3cn[nH]c3)c(F)c2)c(=O)n1-c1ccc(F)cc1 [merestinib, N-(3-fluoro-4-(1-methyl-6-(1H-pyrazol-4-yl)-1H-indazol-5-yloxy)phenyl)-1-(4-fluorophenyl)-6-methyl-2-oxo-1,2-dihydropyridine-3-carboxamide] was tested. Which IC50 [1] did it give?
Answer: > 20 µM

Question: And the “Regression (%)” value ([2]; Day 31)?
Answer: No tumor regression

Question: What about the “T/C %” value ([2]; Day 31) of the same compound?
Answer: 35.2%

Question: And the “Day 69 Treatment Responders NR (Non-responder)” value ([2]; animals of 10/group)?
Answer: 10

Question: What about the “Day 69 Treatment Responders PR (Partial Responder)” value ([2]; animals of 10/group) of the same compound?
Answer: 0

Question: And the “Day 69 Treatment Responders CR (Complete Responder)” value ([2]; animals of 10/group, tumor volume ≤25 mm^3)?
Answer: 0

Question: And the “single agent anti-tumor activity” value ([2]; mouse, in vivo)?
Answer: weak single agent anti-tumor activity
